# According to US11370798B2 (Vertex Pharmaceuticals Incorporated, priority 2012, dated 2022):
# Test system: HCT116 colorectal cancer cells
# Test: Cisplatin sensitization assay (96 h cell viability MTS);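 note: Test-compound concentration that lowers the Cisplatin IC50 by a set fold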
# Format: cell-based
# Settings: compound and Cisplatin added simultaneously, Cisplatin sensitization value
# In short: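 Compound and cisplatin added together as a full matrix of 2-fold serial dilutions from a top final concentration of 10 μM; cells incubated 96 h at 37° C, 5% CO2. Viability then read by MTS after 1 h further incubation; sensitization value reported in μM bins.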
row,Structure (SMILES),Cisplatin Sensitization Assay
1,"CS(=O)(=O)C1CCCN(c2ccncc2NC(=O)c2c(N)nn3cc(F)cnc23)C1 (stereo not shown) [I-N-221, 2-amino-6-fluoro-N-(4-(3-(methylsulfonyl)piperidin-1-yl)pyridin-3-yl)pyrazolo[1,5-a]pyrimidine-3-carboxamide]",++ (Cisplatin sensitization value>0.02 μM but <0.2 μM)
2,"CS(=O)(=O)c1ccc(-c2ccncc2NC(=O)c2c(N)nn3cc(F)cnc23)cc1 [I-C-61, 2-amino-6-fluoro-N-(4-(4-(methylsulfonyl)phenyl)pyridin-3-yl)pyrazolo[1,5-a]pyrimidine-3-carboxamide]",+++ (Cisplatin sensitization value of <0.02 μM)
3,"Nc1nn2cc(F)cnc2c1C(=O)Nc1cnccc1N1CCN(C2CCOCC2)CC1 [I-N-11, 2-amino-6-fluoro-N-(4-(4-(tetrahydro-2H-pyran-4-yl)piperazin-1-yl)pyridin-3-yl)pyrazolo[1,5-a]pyrimidine-3-carboxamide]",++ (Cisplatin sensitization value>0.02 μM but <0.2 μM)
4,"Nc1nn2cc(F)cnc2c1C(=O)Nc1cnccc1N1CCN(S(=O)(=O)C2CCOCC2)CC1 [I-N-177, 2-amino-6-fluoro-N-(4-(4-((tetrahydro-2H-pyran-4-yl)sulfonyl)piperazin-1-yl)pyridin-3-yl)pyrazolo[1,5-a]pyrimidine-3-carboxamide]",+++ (Cisplatin sensitization value of <0.02 μM)
5,"CN1CCN(c2c(F)cncc2NC(=O)c2c(N)nn3cc(CC#N)cnc23)CC1 [I-N-80, 2-amino-6-(cyanomethyl)-N-(5-fluoro-4-(4-methylpiperazin-1-yl)pyridin-3-yl)pyrazolo[1,5-a]pyrimidine-3-carboxamide]",++ (Cisplatin sensitization value>0.02 μM but <0.2 μM)
6,"CC(C)(C)N1CCN(c2ccncc2NC(=O)c2c(N)nn3cc(Cl)cnc23)CC1 [I-N-34, 2-amino-N-(4-(4-(tert-butyl)piperazin-1-yl)pyridin-3-yl)-6-chloropyrazolo[1,5-a]pyrimidine-3-carboxamide]",++ (Cisplatin sensitization value>0.02 μM but <0.2 μM)
7,"Nc1nn2cc(F)cnc2c1C(=O)Nc1cncc(F)c1N1CCN(C(=O)C2CCN(C3COC3)CC2)CC1 [I-N-211, 2-amino-6-fluoro-N-(5-fluoro-4-(4-(1-(oxetan-3-yl)piperidine-4-carbonyl)piperazin-1-yl)pyridin-3-yl)pyrazolo[1,5-a]pyrimidine-3-carboxamide]",++ (Cisplatin sensitization value>0.02 μM but <0.2 μM)
8,"Cc1nccn1-c1ccncc1NC(=O)c1c(N)nn2cc(F)cnc12 [I-N-28, 2-amino-6-fluoro-N-(4-(2-methyl-1H-imidazol-1-yl)pyridin-3-yl)pyrazolo[1,5-a]pyrimidine-3-carboxamide]",+++ (Cisplatin sensitization value of <0.02 μM)
9,"Nc1nn2cc(F)cnc2c1C(=O)Nc1cnccc1N1CCC(C(=O)N2CC(F)C2)CC1 [I-G-82, 2-amino-6-fluoro-N-(4-(4-(3-fluoroazetidine-1-carbonyl)piperidin-1-yl)pyridin-3-yl)pyrazolo[1,5-a]pyrimidine-3-carboxamide]",+++ (Cisplatin sensitization value of <0.02 μM)
10,"CN1CCC[C@@H]1C(=O)N1CCN(c2c(F)cncc2NC(=O)c2c(N)nn3cc(F)cnc23)CC1 [I-N-181, (R)-2-amino-6-fluoro-N-(5-fluoro-4-(4-(1-methylpyrrolidine-2-carbonyl)piperazin-1-yl)pyridin-3-yl)pyrazolo[1,5-a]pyrimidine-3-carboxamide]",+++ (Cisplatin sensitization value of <0.02 μM)
11,"Nc1nn2cc(F)cnc2c1C(=O)Nc1cncc(F)c1N1CCC(C(=O)N2CC[C@H](N3CCCC3)C2)CC1 [I-G-58, (S)—N-(4-(4-([1,3′-bipyrrolidine]-1′-carbonyl)piperidin-1-yl)-5-fluoropyridin-3-yl)-2-amino-6-fluoropyrazolo[1,5-a]pyrimidine-3-carboxamide]",+++ (Cisplatin sensitization value of <0.02 μM)
12,"Nc1nn2cc(F)cnc2c1C(=O)Nc1cncc(F)c1N1CCC(C(=O)O)CC1 [I-N-92, 1-(3-(2-amino-6-fluoropyrazolo[1,5-a]pyrimidine-3-carboxamido)-5-fluoropyridin-4-yl)piperidine-4-carboxylic acid]",+ (Cisplatin sensitization value>0.2 μM but <5 μM)
13,"Nc1nn2cc(F)cnc2c1C(=O)Nc1cnccc1OC1CN2CCC1CC2 (racemic) [I-O-6, (R,S)-2-amino-6-fluoro-N-(4-(quinuclidin-3-yloxy)pyridin-3-yl)pyrazolo[1,5-a]pyrimidine-3-carboxamide]",+++ (Cisplatin sensitization value of <0.02 μM)
14,"Nc1nn2cc(F)cnc2c1C(=O)Nc1cncc(F)c1N1CCN(C(=O)C2CN3CCC2CC3)CC1 (stereo not shown) [I-N-130, 2-amino-6-fluoro-N-(5-fluoro-4-(4-(quinuclidine-3-carbonyl)piperazin-1-yl)pyridin-3-yl)pyrazolo[1,5-a]pyrimidine-3-carboxamide]",++ (Cisplatin sensitization value>0.02 μM but <0.2 μM)
15,"Nc1nn2cc(F)cnc2c1C(=O)Nc1cncc(F)c1N1CCCC1 [I-N-246, 2-amino-6-fluoro-N-(5-fluoro-4-(pyrrolidin-1-yl)pyridin-3-yl)pyrazolo[1,5-a]pyrimidine-3-carboxamide]",++ (Cisplatin sensitization value>0.02 μM but <0.2 μM)
16,"Nc1nn2cc(F)cnc2c1C(=O)Nc1cncc(F)c1N1CCC(C(=O)N2CCC(N3CCC3)CC2)CC1 [I-G-68, 2-amino-N-(4-(4-(4-(azetidin-1-yl)piperidine-1-carbonyl)piperidin-1-yl)-5-fluoropyridin-3-yl)-6-fluoropyrazolo[1,5-a]pyrimidine-3-carboxamide]",+++ (Cisplatin sensitization value of <0.02 μM)
17,"Nc1nn2cc(F)cnc2c1C(=O)Nc1cncc(F)c1N1CCC(S(=O)(=O)N2CCC2)CC1 [I-N-169, 2-amino-N-(4-(4-(azetidin-1-ylsulfonyl)piperidin-1-yl)-5-fluoropyridin-3-yl)-6-fluoropyrazolo[1,5-a]pyrimidine-3-carboxamide]",+++ (Cisplatin sensitization value of <0.02 μM)
18,"CC(=O)N1CCC2(CCN(c3ccncc3NC(=O)c3c(N)nn4cc(F)cnc34)CC2)C1 [I-N-257, N-(4-(2-acetyl-2,8-diazaspiro[4.5]decan-8-yl)pyridin-3-yl)-2-amino-6-fluoropyrazolo[1,5-a]pyrimidine-3-carboxamide]",+++ (Cisplatin sensitization value of <0.02 μM)
19,"CC(C)N1CCCC1C(=O)N1CCN(c2c(F)cncc2NC(=O)c2c(N)nn3cc(F)cnc23)CC1 (stereo not shown) [I-N-205, 2-amino-6-fluoro-N-(5-fluoro-4-(4-(1-isopropylpyrrolidine-2-carbonyl)piperazin-1-yl)pyridin-3-yl)pyrazolo[1,5-a]pyrimidine-3-carboxamide]",++ (Cisplatin sensitization value>0.02 μM but <0.2 μM)
20,"Nc1nn2cc(F)cnc2c1C(=O)Nc1cnccc1N1CCN(CC(F)(F)F)CC1 [I-N-20, 2-amino-6-fluoro-N-(4-(4-(2,2,2-trifluoroethyl)piperazin-1-yl)pyridin-3-yl)pyrazolo[1,5-a]pyrimidine-3-carboxamide]",+++ (Cisplatin sensitization value of <0.02 μM)
21,"CCOc1ccncc1NC(=O)c1c(N)nn2cc(Cl)cnc12 [I-O-56, 2-amino-6-chloro-N-(4-ethoxypyridin-3-yl)pyrazolo[1,5-a]pyrimidine-3-carboxamide]",+++ (Cisplatin sensitization value of <0.02 μM)
22,"CN1CCN(C(=O)C2CCN(c3c(F)cncc3NC(=O)c3c(N)nn4cc(F)cnc34)CC2)CC12CC2 [I-G-38, 2-amino-6-fluoro-N-(5-fluoro-4-(4-(4-methyl-4,7-diazaspiro[2.5]octane-7-carbonyl)piperidin-1-yl)pyridin-3-yl)pyrazolo[1,5-a]pyrimidine-3-carboxamide]",+++ (Cisplatin sensitization value of <0.02 μM)
23,"Nc1nn2cc(Cl)cnc2c1C(=O)Nc1cnccc1N1CCN2CCC[C@H]2C1 [I-N-71, (S)-2-amino-6-chloro-N-(4-(hexahydropyrrolo[1,2-a]pyrazin-2(1H)-yl)pyridin-3-yl)pyrazolo[1,5-a]pyrimidine-3-carboxamide]",+++ (Cisplatin sensitization value of <0.02 μM)
24,"N#CCc1cnc2c(C(=O)Nc3cnccc3O[C@@H]3CCNC3)c(N)nn2c1 [I-O-87, (R)-2-amino-6-(cyanomethyl)-N-(4-(pyrrolidin-3-yloxy)pyridin-3-yl)pyrazolo[1,5-a]pyrimidine-3-carboxamide]",++ (Cisplatin sensitization value>0.02 μM but <0.2 μM)
25,"Nc1nn2cc(F)cnc2c1C(=O)Nc1cncc(F)c1N1CCN(C2CCOCC2)CC1 [I-N-121, 2-amino-6-fluoro-N-(5-fluoro-4-(4-(tetrahydro-2H-pyran-4-yl)piperazin-1-yl)pyridin-3-yl)pyrazolo[1,5-a]pyrimidine-3-carboxamide]",+++ (Cisplatin sensitization value of <0.02 μM)
26,"Nc1nn2cc(F)cnc2c1C(=O)Nc1cnccc1-c1ccnnc1 [I-C-26, 2-amino-6-fluoro-N-(4-(pyridazin-4-yl)pyridin-3-yl)pyrazolo[1,5-a]pyrimidine-3-carboxamide]",++ (Cisplatin sensitization value>0.02 μM but <0.2 μM)
27,"Nc1nn2cc(F)cnc2c1C(=O)Nc1cnccc1N1CCN([C@H]2CCOC2)CC1 [I-N-12, (S)-2-amino-6-fluoro-N-(4-(4-(tetrahydrofuran-3-yl)piperazin-1-yl)pyridin-3-yl)pyrazolo[1,5-a]pyrimidine-3-carboxamide]",+++ (Cisplatin sensitization value of <0.02 μM)
28,"N#CCc1cnc2c(C(=O)Nc3cnccc3N3CCCCCC3)c(N)nn2c1 [I-N-79, 2-amino-N-(4-(azepan-1-yl)pyridin-3-yl)-6-(cyanomethyl)pyrazolo[1,5-a]pyrimidine-3-carboxamide]",++ (Cisplatin sensitization value>0.02 μM but <0.2 μM)
